One block for each compound: values may come before it.
Experiments:
2780/cp70 = experiment: Further tests against cell lines, 2780/cp70; type: cell-based; details: ratio to A2780
MCP1 = experiment: Further tests against cell lines, MCP1; type: cell-based; details: ratio to A2780
Method: (§1) Further tests were carried out against A2780, 2780AD and MCP1 cell lines.

2780AD = experiment: Further tests against cell lines, 2780AD; type: cell-based; details: ratio to A2780
Method: as §1

[1] = Absorption and fluorescence spectra of compounds in PBS or HEPES; type: physicochemical; details: for peak excitation wavelength: excitation wavelength used for fluorescence spectra of FIG. 1A/1B; for fluorescence emission, 540 nm (Ex in PBS): excited at 540 nm; for fluorescence emission, 540 nm (Ex in PBS) / fluorescence emission, λ1 nm (Ex in HEPES) / fluorescence emission, λ1 nm (Ex in PBS): 20 μM; for fluorescence emission, λ1 nm (Ex in HEPES) / fluorescence emission, λ1 nm (Ex in PBS): excited at absorption peak 1 (λ1)
Method: The compounds were exited at 540 nm and at the wavelength of their absorption peak 1 (λ1 nm). The far-red fluorescent DNA dye DRAQ5 was used as reference.
Compounds were dissolved in DMSO (Sigma) to 20 mM stock concentration. DRAQ5 (Biostatus Ltd) was used as a control anthraquinone agent dissolved in deionised water. Working solutions were prepared in PBS (phosphate buffered saline; Sigma) or HEPES (4-(2-hydroxyethyl)-1-piperazineethanesulfonic acid; Sigma) at 20 or 40 μM. Probe solutions (20 μM), respectively in PBS or HEPES, were pipetted into a 1 mL quartz cuvette (Thermo Fisher Scientific). After obtaining baseline spectra in relevant buffer to zero the instrument, absorbance measurements were obtained using a Beckmann Coulter DU 800 UV/Visible spectrophotometer. The excitation wavelengths were scanned from 280 to 800 nm. Fluorescent spectral scans were performed using a Perkin Elmer LS-50B Luminescence spectrophotometer. To obtain emission scans, the excitation wavelength was set accordingly to the maximum values for each agent or another designated excitation wavelength that matches typical laser lines; and the emission wavelength were scanned from 400 nm to 900 nm in 1 nm increments. A Xenon flash lamp was used as the light source, with the lamp energy set to high. For each data point ten measurements were acquired with the photomultiplier tube sensitivity set at 125.
Compounds were excited at a wavelength corresponding to the first absorbance peak 1 (FIG. 1A and FIG. 1B show absorption (line) and fluorescence (dots) spectra of compounds; both are normalised to peak value.

[2] = test system: fixed human osteosarcoma U-2 OS cells; experiment: Labelling of fixed cells, wide-field fluorescence microscopy; type: cell-based; details: 20 μM, 1 h exposure in PBS, FIG. 2
Method: Cells were seeded in a 24 well coverslip bottomed-plate, cultured overnight in McCoys media. 24 or 48 hours later the cells were washed gently with 3×2 mL PBS per well. The PBS was removed and 0.5 mL of 4% paraformaldehyde solution [a 4% paraformaldehyde solution in PBS was made fresh each time from a 16% stock solution (Thermo Fisher Scientific)] was added in each well and cells were incubated for 30 min. The paraformaldehyde was removed and cells were washed 3×2 mL PBS per well. 1 mL of PBS or HEPES was added to each well.
(§2) Before analysis, cells were incubated at 37° C. in the dark for the period designated. Samples were analysed directly without any further washing step. For live cell labelling cells were seeded, plated in a similar way, into a similar multi-well dish for optimal optical performance and could be used across all microscope platforms.
(§3) This basic protocol was the standard for testing the patterns of AAQ agents at 20 μM, compared to 20 μM of DRAQ5 as the benchmark reference (both in terms of cellular location and ability to detect the red fluorescence).
Low resolution wide-field fluorescence microscopy was used to evaluate cell labelling in fixed human osteosarcoma U-2 OS cells. The system was an Axiovert 100 microscope (Carl Zeiss, Welwyn Garden City, UK) ×10 0.3 NA air objective lens and an ORCA-ER CCD camera (Hamamatsu, Reading, UK). Illumination was controlled by a shutter in front of the transmission lamp. Image capture was controlled using Metamorph software. This evaluates the ability of the compounds to label cellular compartments without active uptake or efflux prohibiting delivery into the given cell. Image collection was performed after 1 h of exposure to probes in PBS. The calibration bar represents 50 μm.

A549 live cells = experiment: Loading of A549 live cells, wide-field fluorescence microscopy; type: cell-based, human; details: 20 μM, 30 min incubation, FIG. 3
Method: as §2, §3
Low resolution wide-field fluorescence microscopy was used to evaluate cell uptake and localisation of the probe compounds. The system was an Axiovert 100 microscope (Carl Zeiss, Welwyn Garden City, UK) ×10 0.3 NA air objective lens and an ORCA-ER CCD camera (Hamamatsu, Reading, UK). Illumination was controlled by a shutter in front of the transmission lamp. Image capture was controlled using Metamorph software. Human non-small cell lung cancer A549 cell line was used as the cell model to determine whether variation of the probe loading and localisation occurred in cell population sustaining a “side population” (SP) (Smith P J, Wiltshire M, Chappell S C, Cosentino L, Burns P A, Pors K, Errington R J. Kinetic analysis of intracellular Hoechst 33342—DNA interactions by flow cytometry: misinterpretation of side population status? Cytometry A 2013; 83:161-9) with a known capacity to efflux xenobiotic molecules, including the DNA dye Hoechst 33342.
Cells were incubated for 30 min with each compound and then images were collected at a 30 ms exposure time using low resolution wide-field fluorescence microscopy. Using an Axiovert 100 microscope (Carl Zeiss, Welwyn Garden City, UK) ×10 0.3 NA air objective lens and an ORCA-ER CCD camera (Hamamatsu, Reading, UK). Illumination was controlled by a shutter in front of the transmission lamp. Image capture was controlled using Metamorph software. The calibration bar represents 50 μm.

U-2 OS cells = experiment: Confocal laser scanning microscopy (CLSM) localisation analysis; type: cell-based, human; details: 30 min incubation, Ex 637 nm, Em >665 nm; for subcellular localisation by CLSM: FIG. 4 and 5
Method: Confocal laser scanning microscopy (CLSM) was used to analyse the localisation of compounds BST-100, BST-101 and BST-106 with the U-2 OS cells, as it permitted the acquisition of volume limited optical sections through the cell and media. Excitation (637 nm) and emission (>665 nm) values for the probe analysis were the optimal conditions. The data sets obtained were processed and assembled into a single maximum projection image.
The patterns were analysed after 30 min incubation at different z depths and eliminating the solution background. The nucleus/cytoplasm ratio was calculated to quantify the localisation of the probe per cell.
A Radiance CLSM (BioRad Microscience) was used attached to an inverted Nikon microscope. Image acquisition was performed using excitation (637 nm) and emission (>665 nm) wavelengths. The histogram plot reports the nucleus/cytoplasm index to determine DNA binding in live cells. The calibration bar represents 10 μm.
The compounds BST-108, BST-109 were analysed in the same way.

MCF7 = experiment: MTT cellular viability (growth inhibition) assay, MCF7; type: cell-based; details: Homo sapiens, 0.25-100 μM, 72 h, Table 3
Method: (§4) The viability of A549 or MCF7 in response to compounds was determined using the MTT (3-(4,5-dimethylthiazolyl-2-)-2, 5-diphenyltetrazolium bromide) assay according to the protocol set out in Mosmann T., Rapid colorimetric assay for cellular growth and survival: application to proliferation and cytotoxicity assays. Journal of immunological methods 1983; 65:55-63.
(§5) Initially, cells were seeded into a rounded-bottom 96 well plate (Corning) at six different cell seeding densities (0.5×104, 1×104, 2×104, 3×104, 4×104, and 5×104) per mL of R10 media (cells/mL) in order to optimise the assay and establish the most suitable seeding assay. Concentration of 1×10^4 cells/mL was determined to be the optimum seeding density for both cell lines for 96 h total incubation. A control lane contained supplemented R10 only. The 96 well plates were incubated overnight at 37° C., 5% CO2 and 100% humidity to allow cell adhesion. Cells were then treated respectively with novel AAQs (0.25-100 μM) or growth inhibition (IC50) of compounds of the invention was studied against MCF7 and A549 cancer cell lines. Compounds were tested with a concentration range between 0.25 and 100 μM for 72 h and doxorubicin, as positive cytotoxic control, was tested in parallel at the same doses.

A549 = experiment: MTT cellular viability (growth inhibition) assay, A549; type: cell-based; details: Homo sapiens, 0.25-100 μM, 72 h, Table 3
Method: as §4, §5

A549 cells = experiment: Flow cytometry analysis of cell uptake before/after hydrolysis; type: cell-based, human; details: 20 μM, 30 min; for % ile (25): low loader cell population
Method: Flow cytometry analysis was performed to evaluate the effect of pre-treatment with HCl to generate an active aldehyde on the cell uptake properties. A549 cells were incubated for 30 min with compounds of Formula (I) and its hydrolysed forms (20 μM) prior to analysis. The rate of uptake was tested in A549 cell culture media and in Aldefluor buffer, containing the MDR-blocker verapamil (Pearce and Bonnet 2007), to evaluate the effect in uptake with/without the Aldefluor assay system. Analysis was conducted in the viable subset of cells, corresponding to ˜95% of the total amount under investigation.
Aldefluor buffer contained verapamil vs. cell media. The cells were incubated with 20 μM of the respective AAQ/HAAQs (30 min) before analysis
Statistical analysis of A549 uptake before/after hydrolysis was also studied. Experiments were performed in cell media versus Aldefluor buffer. Data were processed using FlowJo software (Tree Star). DRAQ5 was used to set the dynamic range and as control dye and empty cells were used to determine auto-fluorescence.

[3] = solution: Aldefluor buffer with verapamil

SMILES: COC(CNCCCCCCNc1ccc(NCCN(C)C)c2c1C(=O)c1c(O)ccc(O)c1C2=O)OC [BST-301, 1-((6-((2,2-dimethoxyethyl)amino)hexyl)amino)-4-((2-(dimethylamino)ethyl)amino)-5,8-dihydroxyanthracene-9,10-dione]
- RF (2780/cp70): 0.10
- RF (MCP1) (MCP1): 0.39
- RF (2780AD): 2.8

SMILES: COC(CNCCCNc1ccc(NCCN(C)C)c2c1C(=O)c1c(O)ccc(O)c1C2=O)OC [BST-303, 1-((3-((2,2-dimethoxyethyl)amino)propyl)amino)-4-((2-(dimethylamino)ethyl)amino)-5,8-dihydroxyanthracene-9,10-dione]
- RF (2780/cp70): 0.19
- RF (MCP1) (MCP1): 0.36
- RF (2780AD): 9.7

- peak excitation wavelength [1]: 610 nm
- fluorescence emission, 540 nm (Ex in PBS) [1]: 692 nm
- fluorescence emission, λ1 nm (Ex in HEPES) [1]: 684 nm
- fluorescence emission, λ1 nm (Ex in PBS) [1]: 685 nm
- IC50 (MCF7): 1440 nM
- IC50 (A549): 1700 nM
SMILES: COC(CNC(=O)CCNc1ccc(NCCN(C)C)c2c1C(=O)c1c(O)ccc(O)c1C2=O)OC [BST-108, N-(2,2-Dimethoxyethyl)-3-(4-(2-(dimethylamino)ethylamino)-5,8-dihydroxy-9,10-dioxo-9,10-dihydroanthracen-1-ylamino)propanamide]
- staining pattern in fixed cells [2]: heterogeneity in cytoplasmic staining and positive spots in the nuclei
- fluorescence brightness / background in live cells (A549 live cells): very bright cellular fluorescence
- subcellular localisation by CLSM (U-2 OS cells): strong nuclear uptake and perinuclear staining, with possible ER accumulation
- Median (fluorescence, uptake) (A549 cells; [3]): 67.08
- % ile (25) (A549 cells; [3]): 57.65
- Median (fluorescence, uptake) (A549 cells; solution: media): 75.48
- % ile (25) (A549 cells; solution: media): 65.32

SMILES: COC(CNCCNc1ccc(NCCN(C)C)c2c1C(=O)c1c(O)ccc(O)c1C2=O)OC [BST-302, 1-((2-((2,2-dimethoxyethyl)amino)ethyl)amino)-4-((2-(dimethylamino)ethyl)amino)-5,8-dihydroxyanthracene-9,10-dione]
- RF (2780/cp70): 0.32
- RF (MCP1) (MCP1): 0.61
- RF (2780AD): 81.4

SMILES: COC(CNCCCCNc1ccc(NCCN(C)C)c2c1C(=O)c1c(O)ccc(O)c1C2=O)OC [BST-304, 1-((4-((2,2-dimethoxyethyl)amino)butyl)amino)-4-((2-(dimethylamino)ethyl)amino)-5,8-dihydroxyanthracene-9,10-dione]
- RF (2780/cp70): 0.07
- RF (MCP1) (MCP1): 0.36
- RF (2780AD): 11.8

SMILES: N.N.[Cl][Pt][Cl] [Cisplatin, reference compound]
- RF (2780/cp70): 5.37
- RF (MCP1) (MCP1): 1.26
- RF (2780AD): 4.6

SMILES: COC(CNCCCCCNc1ccc(NCCN(C)C)c2c1C(=O)c1c(O)ccc(O)c1C2=O)OC [BST-305, 1-((5-((2,2-dimethoxyethyl)amino)pentyl)amino)-4-((2-(dimethylamino)ethyl)amino)-5,8-dihydroxyanthracene-9,10-dione]
- RF (2780/cp70): 0.14
- RF (MCP1) (MCP1): 0.53
- RF (2780AD): 5.2

- peak excitation wavelength [1]: 610 nm
- fluorescence emission, 540 nm (Ex in PBS) [1]: 684 nm
- fluorescence emission, λ1 nm (Ex in HEPES) [1]: 684 nm
- fluorescence emission, λ1 nm (Ex in PBS) [1]: 684 nm
- IC50 (MCF7): 1800 nM
- IC50 (A549): 38200 nM
SMILES: COC(CC(=O)NCCNc1ccc(NCCN(C)C)c2c1C(=O)c1c(O)ccc(O)c1C2=O)OC [BST-111, N-(2-(4-(2-(Dimethylamino)ethylamino)-5,8-dihydroxy-9,10-dioxo-9,10-dihydroanthracen-1-ylamino)ethyl)-3,3-dimethoxypropanamide]
- fluorescence brightness / background in fixed cells [2]: very high background fluorescence
- staining pattern in fixed cells [2]: cytoplasmic staining and heterogeneity on labelling of mitotic figures
- staining pattern in live cells (A549 live cells): greater contrast and diffuse cellular staining
- specific feature of localisation by CLSM (U-2 OS cells): mainly loaded in the nuclear compartment
- subcellular localisation by CLSM (U-2 OS cells): strong nuclear uptake and perinuclear staining, with possible ER accumulation
- Median (fluorescence, uptake) (A549 cells; [3]): 74.94
- % ile (25) (A549 cells; [3]): 64.64
- Median (fluorescence, uptake) (A549 cells; solution: media): 72.42
- % ile (25) (A549 cells; solution: media): 62.72

Source: patent publication US11447638B2, “Acetalanthraquinone derivatives useful for cellular staining” (BIOSTATUS LIMITED, priority 2016, dated 2022)
